Where two headings read alike, the source gives them in different places.
What was measured:
[1] = system: STAT5b-GyrB fusion proteins
Method: To evaluate the effectiveness of the analogs of the present invention to act as chemical dimerizers of chimeric proteins, a BAF cell proliferation assay was performed.
BAF Cell Proliferation Assay
We have transfected BAF Cells with the human IL2 Receptor β chain. These transfected cells respond to human IL-2 by increasing their rate of cellular proliferation. This can be assayed by measuring the amount of tritiated thymidine that these cells incorporate into their DNA. One of the signaling proteins activated by IL-2 is the transcription factor STAT5b. This activation of STAT5b is responsible, in part, for the growth-promoting effects of IL-2.
STAT5b is activated by dimerization, an event that is dependent on its phosphorylation and which requires interaction of STAT5b with a ligand bound activated receptor. We can mimic this activation of STAT5b by transfecting BAF cells with a fusion protein consisting of the GyrB domain (the24 kDa amino-terminal fragment of bacterial DNA gyrase, amino acids 2-220) fused to the carboxy-terminus of STAT5b. Addition of the symmetrically dimeric antibiotic coumermycin artificially forces the dimerization of STAT5b-GyrB fusion proteins and results in an increased rate of cell growth that can be measured by the cell's ability to incorporate thymidine. This provides an assay to determine the ability of coumermycin analogs to promote dimerization of STAT5b-GyrB fusion proteins.
The assay is run as follows: BAF cells transfected with the human IL-2 receptor β chain and STAT5b-GyrB are washed twice in phosphate-buffered saline. They are then re-suspended in BAF cell media that lacks IL-2 and placed in a 96-well plate. Increasing amounts of coumermycin, or coumermycin analogs are then added to different wells in a 96-well plate and the cells are incubated overnight. Twenty-four hours later the cell media is spiked with tritiated thymidine and the cells are incubated for an additional 16 hours. The cells are subsequently harvested with a Wallac cell harvester and the amount of tritiated thymidine incorporated is measured using a β scintillation counter.
Set up for BAF proliferation assay was as follows: Spin down cells and wash one time in PBS. Resuspended in BAF cell media without cytokine at 2×10^5 cells/ml. added 100 μl/well or 2×10^4 cells. The compounds were prepared at 2 mg/ml (equivalent to 1.8 nM±5%). Plates were set up so that each condition equaled 1 row of 12 (n=number of wells/row=12). DMSO being utilized as an initial control Compound 5 was prepared in concentrations of 1.6, 16, 163, 450, and 900 nM, and 1.8 μM in DMSO, and as a second control, IL-2 growth factor was added to coumermycin. Two novenamine anologs, Comparative Compounds (CCmpd) 1 and 2, below were also use in this example as control.
The compounds were re-suspended in dimethylsulfoxide (DMSO) at a concentration of 2 mg/ml. […] Next, the cells were washed 2 times with PBS. The re-suspended cells were present at a concentration of 1×10^5 cells /ml in BAF media (RPMI, 10% FCS (fetal calf serum), 1% NEAA (non-essential amino acid), 1% L-G-lu, P/S and Hepes) without IL-2, added 100 μl to well (equal to 1×10^4 cells/well).
The compounds were prepared in as follows: DMSO was used as a control; each of the 5 compounds were combined with DMSO at concentrations of 1.8 μM, 900 nM, 450 nM, 90 nM 9 nM, and 900 nM. As a second control, coumermycin in IL-2 was utilized. Each solution at the aforementioned concentration condition, along with BAF cells, was placed in 1 row (12 wells) of a 96 well plate. Thereafter, 100 μL of compound (twice the concentration) was added to the wells.

[2] = system: STAT5b-GyrB fusion proteins; assay: Inhibition assay in BAF cells, all wells with 90 nM coumermycin; format: cell-based, murine; set-up: unit not given here; settings: Table 6
Method: An inhibition assay was also conducted for Compounds 1 and 2. For this assay, all wells contained a DMSO concentration of 90 nM of coumermycin. Compounds 1 and 2 were added at concentrations of 1.8 μM, 900 nM, 90 nM and 9 nM. The conditions of the assay were identical to those referenced early in this example, except that one-third of the amount of 3-H thymidine was used.

[3] = Table 3, Example 2, 900 pM, 1×10^4 cells/well
[4] = Table 2, Example 1, stimulus 1.6 nM, 2×10^4 cells/well
[5] = Table 2, Example 1, stimulus 16.3 nM
[6] = Table 2, Example 1, stimulus 163 nM
[7] = Table 2, Example 1, stimulus 450 nM
[8] = Table 2, Example 1, stimulus 900 nM
[9] = Table 2, Example 1, stimulus 1.8 μM
[10] = Cou. 90 nM plus inhibitor 90 nM
[11] = Cou. 90 nM plus inhibitor 900 nM
[12] = Cou. 90 nM plus inhibitor 1800 nM

| SMILES | Prolif. (cpm) [1, 3] | Prolif. (cpm) ([1]; Table 3, Example 2, 9 nM) | Prolif. (cpm) ([1]; Table 3, Example 2, 90 nM) | Prolif. (cpm) ([1]; Table 3, Example 2, 450 nM) | Prolif. (cpm) ([1]; Table 3, Example 2, 900 nM) | Prolif. (cpm) ([1]; Table 3, Example 2, 1.8 μM) | Prolif. [1, 4] | Prolif. [1, 5] | Prolif. [1, 6] | Prolif. [1, 7] | Prolif. [1, 8] | Prolif. [1, 9] | Prolif. (cpm) ([1]; Table 7, Example 5, 900 pM) | Prolif. (cpm) ([1]; Table 7, Example 5, 9 nM) | Prolif. (cpm) ([1]; Table 7, Example 5, 90 nM) | Prolif. (cpm) ([1]; Table 7, Example 5, 450 nM) | Prolif. (cpm) ([1]; Table 7, Example 5, 900 nM) | Prolif. (cpm) ([1]; Table 7, Example 5, 1.8 μM) | also measured |
| --- | --- | --- | --- | --- | --- | --- | --- | --- | --- | --- | --- | --- | --- | --- | --- | --- | --- | --- | --- |
| COC1C(OC(=O)c2ccc(C)[nH]2)C(O)C(Oc2ccc3c(O)c(NC(=O)c4ccc(C(=O)Nc5c(O)c6ccc(OC7OC(C)(C)C(OC)C(OC(=O)c8ccc(C)[nH]8)C7O)c(C)c6oc5=O)nc4)c(=O)oc3c2C)OC1(C)C (stereo not drawn) [Cmpd 3] | 16313 cpm | 16767 cpm | 19920 cpm | 22221 cpm | 22824 cpm | 21389 cpm | – | – | – | – | – | – | – | – | – | – | – | – | – |
| COC1C(OC(=O)c2ccc(C)[nH]2)C(O)C(Oc2ccc3c(O)c(NC(=O)c4cncc(C(=O)Nc5c(O)c6ccc(OC7OC(C)(C)C(OC)C(OC(=O)c8ccc(C)[nH]8)C7O)c(C)c6oc5=O)c4)c(=O)oc3c2C)OC1(C)C (stereo not drawn) [Cmpd 4] | 20204 cpm | 19290 cpm | 19731 cpm | 20726 cpm | 22817 cpm | 23135 cpm | – | – | – | – | – | – | – | – | – | – | – | – | – |
| COC1C(OC(=O)c2ccc(C)[nH]2)C(O)C(Oc2ccc3c(O)c(NC(=O)COCCOCCOCC(=O)Nc4c(O)c5ccc(OC6OC(C)(C)C(OC)C(OC(=O)c7ccc(C)[nH]7)C6O)c(C)c5oc4=O)c(=O)oc3c2C)OC1(C)C (stereo not drawn) [Cmpd 5] | – | – | – | – | – | – | 15270 | 14277 | 14139 | 12732 | 12315 | 11751 | – | – | – | – | – | – | – |
| COC1C(OC(=O)c2ccc(C)[nH]2)C(O)C(Oc2ccc3c(O)c(NC(=O)c4ccc(C(=O)Nc5c(O)c6ccc(OC7OC(C)(C)C(OC)C(OC(=O)c8ccc(C)[nH]8)C7O)c(C)c6oc5=O)s4)c(=O)oc3c2C)OC1(C)C (stereo not drawn) [Cmpd 9] | 16826 cpm | 18126 cpm | 19177 cpm | 20889 cpm | 22210 cpm | 20367 cpm | – | – | – | – | – | – | – | – | – | – | – | – | – |
| COC1C(OC(=O)c2ccc(C)[nH]2)C(O)C(Oc2ccc3c(O)c(NC(=O)c4cc(C(=O)Nc5c(O)c6ccc(OC7OC(C)(C)C(OC)C(OC(=O)c8ccc(C)[nH]8)C7O)c(C)c6oc5=O)[nH]n4)c(=O)oc3c2C)OC1(C)C (stereo not drawn) [Cmpd 7] | 16520 cpm | 16599 cpm | 17690 cpm | 20553 cpm | 20619 cpm | 20207 cpm | – | – | – | – | – | – | – | – | – | – | – | – | – |
| COC1C(OC(N)=O)C(O)C(Oc2ccc3c(O)c(NC(=O)COCCOCC(=O)Nc4c(O)c5ccc(OC6OC(C)(C)C(OC)C(OC(N)=O)C6O)c(C)c5oc4=O)c(=O)oc3c2C)OC1(C)C (stereo not drawn) [CCmpd 1, reference compound] | – | – | – | – | – | – | 15741 | 14691 | 13628 | 12465 | 11935 | 11057 | – | – | – | – | – | – | – |
| COC1C(OC(N)=O)C(O)C(Oc2ccc3c(O)c(NC(=O)c4cc(=O)cc(C(=O)Nc5c(O)c6ccc(OC7OC(C)(C)C(OC)C(OC(N)=O)C7O)c(C)c6oc5=O)o4)c(=O)oc3c2C)OC1(C)C (stereo not drawn) [CCmpd 3, reference compound] | – | – | – | – | – | – | – | – | – | – | – | – | 32299 cpm | 33921 cpm | 33671 cpm | 33712 cpm | 31968 cpm | 28434 cpm | – |
| COC1C(OC(=O)c2ccc(C)[nH]2)C(O)C(Oc2ccc3c(O)c(NC(=O)COCCOCC(=O)Nc4c(O)c5ccc(OC6OC(C)(C)C(OC)C(OC(=O)c7ccc(C)[nH]7)C6O)c(C)c5oc4=O)c(=O)oc3c2C)OC1(C)C (stereo not drawn) [Cmpd 6] | – | – | – | – | – | – | 14954 | 14710 | 13351 | 12190 | 12872 | 10832 | – | – | – | – | – | – | – |
| COC1C(OC(=O)c2ccc(C)[nH]2)C(O)C(Oc2ccc3c(O)c(NC(=O)c4cc(=O)cc(C(=O)Nc5c(O)c6ccc(OC7OC(C)(C)C(OC)C(OC(=O)c8ccc(C)[nH]8)C7O)c(C)c6oc5=O)o4)c(=O)oc3c2C)OC1(C)C (stereo not drawn) [Cmpd 1] | – | – | – | – | – | – | – | – | – | – | – | – | 31865 cpm | 34279 cpm | 33933 cpm | 35212 cpm | 33301 cpm | 31029 cpm | Prolif. ([1]; Table 4, Example 3, 900 pM): 7156; Prolif. ([1]; Table 4, Example 3, 9 nM): 7653; Prolif. ([1]; Table 4, Example 3, 90 nM): 7487; Prolif. ([1]; Table 4, Example 3, 450 nM): 7209; Prolif. ([1]; Table 4, Example 3, 900 nM): 7092; Prolif. ([1]; Table 4, Example 3, 1.8 μM): 6397; Prolif. ([2]; Cou. 90 nM plus inhibitor 9 nM): 7713; Prolif. [2, 10]: 7683; Prolif. [2, 11]: 7597; Prolif. [2, 12]: 7271 |
| COC1C(OC(=O)c2ccc(C)[nH]2)C(O)C(Oc2ccc3c(O)c(NC(=O)c4ccc(Oc5ccc(C(=O)Nc6c(O)c7ccc(OC8OC(C)(C)C(OC)C(OC(=O)c9ccc(C)[nH]9)C8O)c(C)c7oc6=O)cc5)cc4)c(=O)oc3c2C)OC1(C)C (stereo not drawn) [Cmpd 2] | – | – | – | – | – | – | – | – | – | – | – | – | 36052 cpm | 38236 cpm | 42674 cpm | 47023 cpm | 46989 cpm | 46345 cpm | Prolif. (cpm) ([1]; Table 5, Example 4, 900 pM): 6014 cpm; Prolif. (cpm) ([1]; Table 5, Example 4, 9 nM): 6031 cpm; Prolif. (cpm) ([1]; Table 5, Example 4, 90 nM): 6623 cpm; Prolif. (cpm) ([1]; Table 5, Example 4, 450 nM): 7513 cpm; Prolif. (cpm) ([1]; Table 5, Example 4, 900 nM): 7798 cpm; Prolif. (cpm) ([1]; Table 5, Example 4, 1.8 μM): 7825 cpm; Prolif. ([2]; Cou. 90 nM plus inhibitor 9 nM): 7654; Prolif. [2, 10]: 7316; Prolif. [2, 11]: 8068; Prolif. [2, 12]: 8165 |
| COC1C(OC(=O)c2ccc(C)[nH]2)C(O)C(Oc2ccc3c(O)c(NC(=O)c4ccc(C(=O)Nc5c(O)c6ccc(OC7OC(C)(C)C(OC)C(OC(=O)c8ccc(C)[nH]8)C7O)c(C)c6oc5=O)cc4)c(=O)oc3c2C)OC1(C)C (stereo not drawn) [Cmpd 8] | 17973 cpm | 19377 cpm | 20715 cpm | 22936 cpm | 23858 cpm | 22772 cpm | – | – | – | – | – | – | – | – | – | – | – | – | – |
| COC1C(OC(N)=O)C(O)C(Oc2ccc3c(O)c(NC(=O)COCCOCCOCC(=O)Nc4c(O)c5ccc(OC6OC(C)(C)C(OC)C(OC(N)=O)C6O)c(C)c5oc4=O)c(=O)oc3c2C)OC1(C)C (stereo not drawn) [CCmpd 2, reference compound] | – | – | – | – | – | – | 14761 | 14459 | 14516 | 13568 | 12281 | 11676 | – | – | – | – | – | – | – |
| COC1C(OC(=O)c2ccc(C)[nH]2)C(O)C(Oc2ccc3c(O)c(NC(=O)c4c[nH]c(C(=O)Nc5c(O)c6ccc(OC7OC(C)(C)C(OC)C(OC(=O)c8ccc(C)[nH]8)C7O)c(C)c6oc5=O)c4C)c(=O)oc3c2C)OC1(C)C (stereo not drawn) [Cou., coumermycin] | 18071 cpm | 20551 cpm | 25219 cpm | 27515 cpm | 30752 cpm | 30664 cpm | 16137 | 16261 | 16836 | 18842 | 21057 | 23199 | 36503 cpm | 44455 cpm | 51248 cpm | 60293 cpm | 64831 cpm | 68728 cpm | Prolif. ([1]; Table 4, Example 3, 900 pM): 7422; Prolif. ([1]; Table 4, Example 3, 9 nM): 8792; Prolif. ([1]; Table 4, Example 3, 90 nM): 9860; Prolif. ([1]; Table 4, Example 3, 450 nM): 10832; Prolif. ([1]; Table 4, Example 3, 900 nM): 11470; Prolif. ([1]; Table 4, Example 3, 1.8 μM): 12308; Prolif. (cpm) ([1]; Table 5, Example 4, 900 pM): 6063 cpm; Prolif. (cpm) ([1]; Table 5, Example 4, 9 nM): 6750 cpm; Prolif. (cpm) ([1]; Table 5, Example 4, 90 nM): 7595 cpm; Prolif. (cpm) ([1]; Table 5, Example 4, 450 nM): 8457 cpm; Prolif. (cpm) ([1]; Table 5, Example 4, 900 nM): 8636 cpm; Prolif. (cpm) ([1]; Table 5, Example 4, 1.8 μM): 8610 cpm; Prolif. ([2]; Cou. 90 nM with DMSO in place of inhibitor): 7595 |
| COC1C(OC(N)=O)C(O)C(Oc2ccc3c(O)c(NC(=O)c4ccc(Oc5ccc(C(=O)Nc6c(O)c7ccc(OC8OC(C)(C)C(OC)C(OC(N)=O)C8O)c(C)c7oc6=O)cc5)cc4)c(=O)oc3c2C)OC1(C)C (stereo not drawn) [CCmpd 4, reference compound] | – | – | – | – | – | – | – | – | – | – | – | – | 35624 cpm | 35985 cpm | 36764 cpm | 36763 cpm | 35379 cpm | 31918 cpm | – |
